# Assay results from ChEMBL document CHEMBL3431459, “Roche carnitine palmitoyltransferase modulator screening data (supplementary data associated with the publication CHEMBL2216752)”.
# Legend:
# [1] = SUPPLEMENTARY: Lyophilisation Solubility Assay (LYSA); assay type: physicochemical; conditions: read-out: Kinetic_solubility
# [2] = SUPPLEMENTARY: PAMPA permeability assay; assay type: physicochemical; conditions: read-out: Permeability
# [3] = target: T1, Carnitine O-palmitoyltransferase 2, mitochondrial (Rattus norvegicus, UniProt P18886); experiment: (§1) SUPPLEMENTARY: Inhibition of Carnitine palmitoyltransferase 2
# T1 sequence (P18886 whole entry): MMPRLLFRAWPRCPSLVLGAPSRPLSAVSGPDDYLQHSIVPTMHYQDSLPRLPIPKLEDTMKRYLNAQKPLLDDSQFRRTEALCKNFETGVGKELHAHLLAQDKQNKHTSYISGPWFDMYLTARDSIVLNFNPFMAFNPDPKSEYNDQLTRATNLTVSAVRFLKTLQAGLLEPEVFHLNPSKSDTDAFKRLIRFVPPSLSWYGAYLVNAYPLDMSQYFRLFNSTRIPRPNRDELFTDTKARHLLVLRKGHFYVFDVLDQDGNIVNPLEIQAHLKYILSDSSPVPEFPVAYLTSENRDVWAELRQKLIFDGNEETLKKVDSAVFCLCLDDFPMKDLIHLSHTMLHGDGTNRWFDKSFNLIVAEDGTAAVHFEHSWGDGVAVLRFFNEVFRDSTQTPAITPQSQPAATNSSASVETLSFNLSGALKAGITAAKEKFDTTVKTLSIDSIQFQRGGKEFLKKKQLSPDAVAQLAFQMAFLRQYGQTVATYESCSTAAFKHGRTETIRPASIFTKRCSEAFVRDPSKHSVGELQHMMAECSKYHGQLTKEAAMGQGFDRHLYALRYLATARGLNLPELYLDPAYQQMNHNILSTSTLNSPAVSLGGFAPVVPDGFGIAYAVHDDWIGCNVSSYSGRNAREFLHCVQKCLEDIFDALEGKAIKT
# [4] = target: T2, Carnitine O-palmitoyltransferase 2, mitochondrial (Homo sapiens, UniProt P23786); experiment: as §1
# T2 sequence (P23786 whole entry): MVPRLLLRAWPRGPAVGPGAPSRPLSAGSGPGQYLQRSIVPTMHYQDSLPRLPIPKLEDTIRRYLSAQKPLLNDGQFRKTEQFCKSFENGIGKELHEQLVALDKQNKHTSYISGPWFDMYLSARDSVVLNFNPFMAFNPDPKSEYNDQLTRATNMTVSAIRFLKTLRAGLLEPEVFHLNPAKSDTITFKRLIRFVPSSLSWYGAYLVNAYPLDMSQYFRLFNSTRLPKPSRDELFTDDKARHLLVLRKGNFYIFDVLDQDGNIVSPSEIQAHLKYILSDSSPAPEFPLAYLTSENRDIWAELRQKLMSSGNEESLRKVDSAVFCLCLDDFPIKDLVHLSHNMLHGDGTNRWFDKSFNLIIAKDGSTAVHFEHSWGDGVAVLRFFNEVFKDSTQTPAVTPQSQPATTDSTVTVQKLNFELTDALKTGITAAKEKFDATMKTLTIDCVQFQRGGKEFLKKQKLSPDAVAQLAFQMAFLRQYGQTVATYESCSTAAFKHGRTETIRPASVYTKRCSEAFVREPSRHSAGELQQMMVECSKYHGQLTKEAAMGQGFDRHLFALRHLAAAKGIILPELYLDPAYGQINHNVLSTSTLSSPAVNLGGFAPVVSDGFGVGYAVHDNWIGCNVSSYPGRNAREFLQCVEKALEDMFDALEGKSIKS
# [5] = SUPPLEMENTARY: Lipophilicity (log D) Determination by high-throughput shake-flask; assay type: physicochemical; conditions: octanol/water
# [6] = target: T3, Carnitine O-palmitoyltransferase 1, muscle isoform (Homo sapiens, UniProt Q92523); experiment: SUPPLEMENTARY: Inhibition of Carnitine palmitoyltransferase 1, muscle isoform; parameters: species or system Muscle tissue
# T3 sequence (Q92523 whole entry): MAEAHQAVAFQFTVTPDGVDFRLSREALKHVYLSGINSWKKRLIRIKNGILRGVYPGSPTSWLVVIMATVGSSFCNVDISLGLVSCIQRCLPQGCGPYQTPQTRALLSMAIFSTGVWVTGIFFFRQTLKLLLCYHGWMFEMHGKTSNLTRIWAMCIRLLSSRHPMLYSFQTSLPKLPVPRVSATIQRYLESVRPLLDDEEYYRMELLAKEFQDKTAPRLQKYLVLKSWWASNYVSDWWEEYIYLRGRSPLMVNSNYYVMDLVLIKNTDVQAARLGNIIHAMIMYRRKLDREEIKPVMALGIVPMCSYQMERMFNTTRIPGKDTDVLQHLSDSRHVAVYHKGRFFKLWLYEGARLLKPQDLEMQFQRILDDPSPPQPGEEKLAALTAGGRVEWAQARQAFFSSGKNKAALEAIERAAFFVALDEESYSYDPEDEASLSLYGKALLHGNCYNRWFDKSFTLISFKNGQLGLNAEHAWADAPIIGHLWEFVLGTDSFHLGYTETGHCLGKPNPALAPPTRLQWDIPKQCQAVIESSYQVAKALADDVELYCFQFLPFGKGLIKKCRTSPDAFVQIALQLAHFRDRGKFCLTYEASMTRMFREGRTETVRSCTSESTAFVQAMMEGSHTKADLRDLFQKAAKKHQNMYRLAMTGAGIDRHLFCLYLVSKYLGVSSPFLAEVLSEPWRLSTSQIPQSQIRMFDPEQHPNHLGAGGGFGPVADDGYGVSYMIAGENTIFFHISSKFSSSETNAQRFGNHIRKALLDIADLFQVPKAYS
# [7] = target: T4, Carnitine O-palmitoyltransferase 1, liver isoform (Homo sapiens, UniProt P50416); experiment: (§2) SUPPLEMENTARY: Inhibition of Carnitine palmitoyltransferase 1, liver isoform
# T4 sequence (P50416 whole entry): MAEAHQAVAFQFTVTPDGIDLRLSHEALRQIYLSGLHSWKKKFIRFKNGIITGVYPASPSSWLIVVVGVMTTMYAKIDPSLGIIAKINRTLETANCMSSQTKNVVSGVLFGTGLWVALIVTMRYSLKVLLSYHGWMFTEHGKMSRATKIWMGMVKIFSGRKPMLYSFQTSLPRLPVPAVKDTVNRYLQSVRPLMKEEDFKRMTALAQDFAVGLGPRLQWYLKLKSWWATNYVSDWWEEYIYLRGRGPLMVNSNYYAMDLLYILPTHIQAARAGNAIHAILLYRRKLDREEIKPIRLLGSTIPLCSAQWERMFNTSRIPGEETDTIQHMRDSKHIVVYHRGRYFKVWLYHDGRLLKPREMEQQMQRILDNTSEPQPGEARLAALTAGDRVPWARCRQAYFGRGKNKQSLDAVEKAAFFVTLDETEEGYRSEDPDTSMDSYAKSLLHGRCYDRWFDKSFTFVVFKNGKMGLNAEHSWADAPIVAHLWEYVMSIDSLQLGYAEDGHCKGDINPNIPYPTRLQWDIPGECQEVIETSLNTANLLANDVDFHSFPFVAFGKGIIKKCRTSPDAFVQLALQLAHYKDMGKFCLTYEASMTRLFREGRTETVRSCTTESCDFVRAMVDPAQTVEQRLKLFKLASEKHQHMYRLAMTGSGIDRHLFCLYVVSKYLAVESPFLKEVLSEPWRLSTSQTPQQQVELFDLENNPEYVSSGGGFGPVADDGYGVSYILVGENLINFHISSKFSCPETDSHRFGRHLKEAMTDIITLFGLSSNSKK
# [8] = target: T5, Carnitine O-palmitoyltransferase 1, liver isoform (Rattus norvegicus, UniProt P32198); experiment: as §2
# T5 sequence (P32198 whole entry): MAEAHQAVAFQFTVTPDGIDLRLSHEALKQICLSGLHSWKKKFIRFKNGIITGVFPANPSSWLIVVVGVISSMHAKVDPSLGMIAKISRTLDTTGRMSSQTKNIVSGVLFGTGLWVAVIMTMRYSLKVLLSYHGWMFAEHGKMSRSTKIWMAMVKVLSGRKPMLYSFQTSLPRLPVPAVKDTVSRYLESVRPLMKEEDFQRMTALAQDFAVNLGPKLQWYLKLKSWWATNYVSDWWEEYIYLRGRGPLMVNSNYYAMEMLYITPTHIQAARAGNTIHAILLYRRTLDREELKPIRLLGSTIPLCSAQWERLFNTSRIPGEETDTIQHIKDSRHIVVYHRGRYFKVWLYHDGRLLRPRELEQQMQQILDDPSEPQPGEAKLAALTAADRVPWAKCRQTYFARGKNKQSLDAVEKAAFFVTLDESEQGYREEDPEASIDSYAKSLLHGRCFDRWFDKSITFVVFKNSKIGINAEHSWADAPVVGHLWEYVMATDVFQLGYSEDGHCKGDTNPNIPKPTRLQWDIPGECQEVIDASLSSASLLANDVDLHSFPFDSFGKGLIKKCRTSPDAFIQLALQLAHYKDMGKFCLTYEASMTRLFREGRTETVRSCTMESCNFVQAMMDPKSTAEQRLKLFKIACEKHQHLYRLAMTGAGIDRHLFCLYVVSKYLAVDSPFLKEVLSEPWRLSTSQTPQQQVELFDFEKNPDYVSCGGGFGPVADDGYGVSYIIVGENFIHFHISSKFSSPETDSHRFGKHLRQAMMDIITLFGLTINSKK
Structure (SMILES),solubility kinetic [1] [µg/mL],Papp [2] [×10⁻⁶ cm/s],IC50 [3] [µM],IC50 [4] [µM],logD [5],IC50 [6] [µM],IC50 [7] [µM],IC50 [8] [µM]
O=C1COc2ccc(-c3n[nH]c([C@H]4CCCCN4C(=O)COc4ccccc4)n3)cc2N1,62,0.95,82.8,49,2.57,94.2,0.121,0.0616
O=C1CNc2ccc(-c3nc([C@H]4CCCCN4C(=O)COc4ccccc4)no3)cc2N1,23,1.83,> 100,21.2,2.38,> 100,0.0941,0.458
COc1ccc(Cl)cc1S(=O)(=O)Nc1cc(C(=O)Nc2ccc(C(=O)O)cc2)cn(C)c1=O,13,0.27,42.4,3.23,-0.34,> 100,0.127,0.0804
COc1ccc(Cl)cc1S(=O)(=O)N(C)c1cc(C(=O)Nc2ncc(CC(=O)O)s2)cc2c1OCO2,277,2.22,> 100,> 100,-0.06,1.21,0.0679,0.0385

# Other lines, results leading:
solubility kinetic [1] [µg/mL],Papp [2] [×10⁻⁶ cm/s],IC50 [3] [µM],IC50 [4] [µM],logD [5],IC50 [6] [µM],IC50 [7] [µM],IC50 [8] [µM],Structure (SMILES)
13,2.25,> 100,25.7,0.49,53.1,0.0861,0.139,O=C(O)c1ccc(NC(=O)c2ccc(Cl)c(NS(=O)(=O)c3cc(Cl)cc(Cl)c3)c2)cc1
26,1.05,> 100,68.5,0.47,5.17,0.229,0.184,O=C(O)c1ccc(NC(=O)c2ccc3c(c2)N(Cc2cccc(Cl)c2)C(=O)CS3(=O)=O)cc1
125,1.79,2.62,1.58,1.75,2.68,0.051,0.026,Cc1cc(C)cc(S(=O)(=O)N2CCSc3ccc(C(=O)Nc4ccc(C(=O)O)cc4)cc32)c1
